From patent publication US8492582B2, “N-acyl anthranilic acid derivative or salt thereof” (Toyama Chemical Co., Ltd., priority 2009, dated 2013)
Structures can show the parent of a compound that is named as a salt. Where two headings read alike, the source gives them in different places.

Tested on: type I collagen α1 chain mRNA in WI-38 cells
Experiment: Type I collagen α1 chain mRNA expression inhibition test
Assay type: cell-based
Settings: Homo sapiens, read-out: Inhibition rate (%) at 10 μmol/L
Experimental: Human embryonic lung fibroblast cell line WI-38 cells were suspended in a Dulbecco's modified Eagle's medium containing 10% fetal calf serum, and 7.5×10^4 cells were inoculated on a 12-well plate and cultured for 3 days, or 1.5×10^5 cells were inoculated and cultured for 2 days. After the growth of the cells to a subconfluent state, the culture medium was changed to a Dulbecco's modified Eagle's medium containing 0.4% fetal calf serum and 50 μg/mL ascorbic acid, and the cells were further cultured for 24 hours. Then, a test compound was added thereto, and, one hour later, TGF-β1 was added at a final concentration of 1 ng/mL. Twenty-four hours after the addition, the total RNA was extracted from the cells using an RNA extraction kit (SV Total RNA Isolation System, Promega), and cDNA was synthesized using a reverse transcriptase (ReverTra Ace, TOYOBO). The expression level of the type I collagen al chain mRNA was analyzed with a real-time PCR instrument (ABI PRISM 7700 Sequence Detection System, Applied Biosystems) by a real-time PCR method using a premix reagent of real-time PCR (SYBR Premix Ex Taq or SYBR Premix Ex Taq II (Perfect Real Time), TaKaRa). A PCR reaction was conducted with diluted cDNA as a template, using primers specific for a type I collagen α1 chain gene or a GAPDH gene as an internal standard, and the reaction product was measured. The PCR reaction was conducted by incubation at 95° C. for 10 seconds and 45 cycles of denaturation at 95° C. for 5 seconds and annealing/extension at 60° C. for 30 seconds. The expression level of the type I collagen α1 chain mRNA was corrected with GAPDH and was expressed as a relative value when the expression level obtained in the absence of the test compound was defined as 100%.

[1] = 10 μmol/L test compound, WI-38 cells, TGF-β1 1 ng/mL, 24 hours, Table 4b
[2] = 10 μmol/L test compound, WI-38 cells, TGF-β1 1 ng/mL, 24 hours, Table 4a

SMILES	inhibition at 10 µM [1] [%]	inhibition at 10 µM [2] [%]	further results
O=C(Nc1cc(-c2ccccc2)ccc1C(=O)O)c1ccc(-c2ccccc2)nc1 [3b, 4-phenyl-2-(6-phenylpyridine-3-carboxamido)benzoic acid]	83		
O=C(Nc1cc(-c2ccccc2)ccc1C(=O)O)c1ccnc(-c2ccccc2)c1 [4b, 4-Phenyl-2-(2-phenylpyridine-4-carboxamido)benzoic acid]	93		
O=C(Nc1cc(-c2ccccc2)ccc1C(=O)O)c1cccc(-c2ccccc2)n1 [5b, 4-Phenyl-2-(6-phenylpyridine-2-carboxamido)benzoic acid]	72		
O=C(Nc1cc(-c2ccccc2OC(F)F)ccc1C(=O)O)c1cncc(-c2ccccc2)c1 [9b]			inhibition at 10 µM (WI-38, 24 h): 84%
CCNc1cccc(-c2ccc(C(=O)O)c(NC(=O)c3cncc(-c4ccccc4)c3)c2)c1 [11b, 4-(3-(ethylamino)phenyl)-2-(5-phenylpyridine-3-carboxamido)benzoic acid]	80		
CNc1ccccc1-c1ccc(C(=O)O)c(NC(=O)c2cncc(-c3ccccc3)c2)c1 [12b, 4-(2-(Methylamino)phenyl)-2-(5-phenylpyridine-3-carboxamido)benzoic acid]	87		
CNc1cccc(-c2ccc(C(=O)O)c(NC(=O)c3cncc(-c4ccccc4)c3)c2)c1 [13b, 4-(3-(Methylamino)phenyl)-2-(5-phenylpyridine-3-carboxamido)benzoic acid]	92		
Nc1ccccc1-c1ccc(C(=O)O)c(NC(=O)c2cncc(-c3ccccc3)c2)c1 [27b, 4-(2-Aminophenyl)-2-(5-phenylpyridine-3-carboxamido)benzoic acid]	72		
O=C(Nc1cc(-c2ccccc2)ccc1-c1nnn[nH]1)c1cncc(-c2ccccc2)c1 [29b, 5-phenyl-N-(5-phenyl-2-(1H-tetrazol-5-yl)phenyl)pyridine-3-carboxamide]	86		
Cc1ccccc1-c1ccc(C(=O)O)c(NC(=O)c2cncc(-c3ccccc3)c2)c1 [32b, Sodium 4-(2-methylphenyl)-2-(5-phenylpyridine-3-carboxamido)benzoate]	81		
O=C(Nc1cc(-c2ccccc2C(F)(F)F)ccc1C(=O)O)c1cncc(-c2ccccc2)c1 [33b, Sodium 2-(5-phenylpyridine-3-carboxamido)-4-(2-(trifluoromethyl)phenyl)benzoate]	78		
COc1cccc(-c2ccc(C(=O)O)c(NC(=O)c3cncc(-c4ccccc4)c3)c2)c1 [35b, Sodium 4-(3-methoxyphenyl)-2-(5-phenylpyridine-3-carboxamido)benzoate]	96		
CCOc1ccccc1-c1ccc(C(=O)O)c(NC(=O)c2cncc(-c3ccccc3)c2)c1 [38b, Sodium 4-(2-ethoxyphenyl)-2-(5-phenylpyridine-3-carboxamido)benzoate]	94		
O=C(Nc1cc(-c2ccccc2OC(F)(F)F)ccc1C(=O)O)c1cncc(-c2ccccc2)c1 [40b, Sodium 2-(5-phenylpyridine-3-carboxamido)-4-(2-(trifluoromethoxy)phenyl)benzoate]	96		
O=C(Nc1cc(-c2ccccc2F)ccc1C(=O)O)c1cncc(-c2ccccc2)c1 [44b, sodium 4-(2-fluorophenyl)-2-(5-phenylpyridine-3-carboxamido)-benzoate]			inhibition at 10 µM (WI-38, 24 h): 93%
Cn1cccc1-c1ccc(C(=O)O)c(NC(=O)c2cncc(-c3ccccc3)c2)c1 [45b, 4-(1-methyl-1H-pyrrol-2-yl)-2-(5-phenylpyridine-3-carboxamido)benzoic acid]	90		
O=C(Nc1cc(-c2ccsc2)ccc1C(=O)O)c1cncc(-c2ccccc2)c1 [46b, sodium 2-(5-phenylpyridine-3-carboxamido)-4-(thiophen-3-yl)benzoate]			inhibition at 10 µM (WI-38, 24 h): 69%
CN(C)c1cccc(-c2ccc(C(=O)O)c(NC(=O)c3cncc(-c4ccccc4)c3)c2)c1 [51b, 4-(3-(Dimethylamino)phenyl)-2-(5-phenylpyridine-3-carboxamido)benzoic acid]	92		
O=C(Nc1cc(-c2ccc[nH]2)ccc1C(=O)O)c1cncc(-c2ccccc2)c1 [58b, 2-(5-phenylpyridine-3-carboxamido)-4-(1H-pyrrol-2-yl)benzoic acid]	78		

SMILES	inhibition at 10 µM [1] [%]	inhibition at 10 µM [2] [%]	further results
O=C(Nc1cc(Nc2ccccc2)ccc1C(=O)O)c1cncc(-c2ccccc2)c1 [61b, 4-anilino-2-(5-phenylpyridine-3-carboxamido)benzoic acid]	86		
O=C(Nc1cc(N2CCCCC2)ccc1C(=O)O)c1cncc(-c2ccccc2)c1 [63b, Sodium 2-(5-phenylpyridine-3-carboxamido)-4-(piperidin-1-yl)benzoate]			inhibition at 10 µM (WI-38, 24 h): 65%
O=C(Nc1cc(-c2ccc[nH]2)ccc1C(=O)O)c1cc(N2CCCCC2)ccc1O [157a, 2-(2-hydroxy-5-(piperidin-1-yl)benzamido)-4-(1H-pyrrol-2-yl)benzoic acid]		84	
CC1CCCN(c2ccc(O)c(C(=O)Nc3cc(-c4ccccc4)ccc3C(=O)O)c2)C1 (stereo not shown) [166a, 2-(2-Hydroxy-5-(3-methylpiperidin-1-yl)benzamido)-4-phenylbenzoic acid hydrochloride]		95	
O=C(Nc1cc(-c2ccccc2)ccc1C(=O)O)c1cc(OCCN2CCN(CCCO)CC2)ccc1O [174a, 2-(2-hydroxy-5-(2-(4-(3-hydroxypropyl)piperazin-1-yl)ethoxy)benzamido)-4-phenylbenzoic acid]		86	
O=C(Nc1cc(-c2ccccc2)ccc1C(=O)O)c1cc(OCCN2CCC2)ccc1O [177a, 2-(5-(2-(azetidin-1-yl)ethoxy)-2-hydroxybenzamido)-4-phenylbenzoic acid hydrochloride]		82	
O=C(Nc1cc(-c2ccccc2)ccc1C(=O)O)c1cc(OCCN2CCC(CCO)CC2)ccc1O [180a, 2-(2-Hydroxy-5-(2-(4-(hydroxyethyl)piperidin-1-yl)ethoxy)benzamido)-4-phenylbenzoic acid hydrochloride]		85	
O=C(Nc1cc(-c2ccccc2)ccc1C(=O)O)c1cc(OCCN2CCCCCC2)ccc1O [181a, 2-(5-(2-(Homopiperidin-1-yl)ethoxy)-2-hydroxybenzamido)-4-phenylbenzoic acid hydrochloride]		74	
CCN(CCO)CCOc1ccc(O)c(C(=O)Nc2cc(-c3ccccc3)ccc2C(=O)O)c1 [182a, 2-(5-(2-(Ethyl(2-hydroxyethyl)amino)ethoxy)-2-hydroxybenzamido)-4-phenylbenzoic acid hydrochloride]		82	
CCCN1CCN(CCOc2ccc(O)c(C(=O)Nc3cc(-c4ccccc4)ccc3C(=O)O)c2)CC1 [183a, 2-(2-hydroxy-5-(2-(4-propylpiperazin-1-yl)ethoxy)benzamido)-4-phenylbenzoic acid dimethanesulfonate]		81	
CN1CCC(COc2ccc(O)c(C(=O)Nc3cc(-c4ccccc4)ccc3C(=O)O)c2)CC1 [189a, 2-(2-hydroxy-5-(1-methylpiperidin-4-ylmethoxy)benzamido)-4-phenylbenzoic acid hydrochloride]		95	
CN1CCC(CCOc2ccc(O)c(C(=O)Nc3cc(-c4ccccc4)ccc3C(=O)O)c2)CC1 [190a, 2-(2-Hydroxy-5-(2-(1-methylpiperidin-4-yl)ethoxy)benzamido)-4-phenylbenzoic acid hydrochloride]		86	
CN1CCN(c2ccc(O)c(C(=O)Nc3cc(-c4ccccc4)ccc3C(=O)O)c2)CC1=O [193a, 2-(2-Hydroxy-5-(4-methyl-3-oxopiperazin-1-yl)benzamido)-4-phenylbenzoic acid]		85	
O=C(Nc1cc(-c2cccc(F)c2)ccc1C(=O)O)c1cc(N2CCOCC2)ccc1O [198a, 4-(3-Fluorophenyl)-2-(2-hydroxy-5-(morpholin-4-yl)benzamido)benzoic acid]		81	
Cc1cccc(-c2ccc(C(=O)O)c(NC(=O)c3cc(N4CCOCC4)ccc3O)c2)c1 [201a, 2-(2-Hydroxy-5-(morpholin-4-yl)benzamido)-4-(3-methylphenyl)benzoic acid]		94	
COc1cccc(-c2ccc(C(=O)O)c(NC(=O)c3cc(N4CCOCC4)ccc3O)c2)c1 [204a, 2-(2-Hydroxy-5-(morpholin-4-yl)benzamido)-4-(3-methoxyphenyl)benzoic acid]		89	
O=C(Nc1cc(-c2ccc3c(c2)ONO3)ccc1C(=O)O)c1cc(N2CCOCC2)ccc1O [207a, 4-(Benzo-[1,3]-dioxazol-5-yl)-2-(2-hydroxy-5-(morpholin-4-yl)benzamido)benzoic acid]		83	
CN1CCCCC1c1ccc(O)c(C(=O)Nc2cc(-c3ccccc3)ccc2C(=O)O)c1 (stereo not shown) [217a, 2-(2-hydroxy-5-(1-methylpiperidin-2-yl)benzamido)-4-phenylbenzoic acid]		91	
